Patent publication US7576125B2, “Melanogenesis inhibitor and skin preparation containing the same” (Takasago International Corporation, priority 2003, dated 2009)

Tests used:
Format in all cases: cell-based
B16 melanoma cells [1] = assay: Melanogenesis inhibition test (visual evaluation) using B16 melanoma cells; conditions: 3 days culture
Procedure: The following tests a) and b) were conducted on the compounds shown in Synthesis Examples and Comparative Synthesis Examples to examine their melanogenesis-inhibiting effects. • a) Cytotoxicity test (using B16 melonoma cells) • b) Melanogenesis inhibition test (visual evaluation) (using B16 melonoma cells) Evaluation Methods
8×10^4 B16 melanoma cells were inoculated in a plastic-made culture flask (25 cm^2). The cells were cultured in a 10% serum-containing DMEN medium (produced by Nissui Pharmaceutical co., Ltd., trade name) in the presence of 5% carbon dioxide at 37° C. 3 days later, a test sample diluted with ethanol was added thereto, and culture was conducted for 3 days. After the completion of the culture, the medium was removed and the flask contents were washed with a phosphate buffer solution (hereinafter referred t as PBS). The cells were peeled from the flask inner wall using a medium containing trypsin and EDTA (ethylenediaminetetraacetic acid). The resulting cells suspension was centrifuged to recover cells. Part of the cells was taken and the number of cells was measured using a Coulter counter. […] A melanogenesis inhibition test was carried out in this concentration range. The cells obtained were washed once with PBS and then the whiteness of the precipitate was rated visually based on the following evaluation standard.
Evaluation Standard • −: Same as the solvent control (black) • +−: Slightly different from the solvent control (black-gray) • +: Clearly different from the solvent control (gray) • ++: Coloring of cells is very low (gray-white) • +++: No coloring of cells (white)

[2] = tested on: tyrosinase biosynthesis in B16 melanoma cells; assay: Tyrosinase biosynthesis hindrance test (intra-cell tyrosinase activity); conditions: 2 days
Procedure: A tyrosinase activity hindrance test and a tyrosinase biosynthesis hindrance test were conducted according to the following test methods to examine the mechanism for hindrance of melanin denovo synthesis. […] In this method, tyrosinase biosynthesis hindrance is indicated indirectly by measuring intra-cell tyrosinase activity. 100 μl of a suspension containing 3×10^5/ml of B16 melanoma cells was inoculated into a 96-well plate, and culture was made at 37° C. overnight in 5% CO2. Next day, the medium was changed with 200 μl of a sample-containing culture medium, and culture was made for 2 days under the same conditions. Thereafter, the supernatant liquid was removed and the residue was washed with 200 μl of a phosphate buffer solution twice. Then, 100 μl of 1% Triton X100 was added and the mixture was allowed to stand at room temperature for 1 hour, followed by gentle shaking. Next, 100 μl of 1% DOPA was added. Measurement was made in the same manner as in the above test method for tyrosinase activity hindrance.

B16 melanoma cells [3] = assay: Cell propagation rate / cytotoxicity by MTT method on parallel plate

Row | Structure (SMILES) | whiteness of the cell precipitate rated visually (melanogenesis inhibition) (B16 melanoma cells [1]; Concentration 12.5 μg/ml) | other results
1 | CCCCOCc1ccc2c(c1)OCO2 [Synthesis Example 2, piperonyl n-butyl ether] | ++ | 
2 | COCc1ccc2c(c1)OCO2 [Synthesis Example 3, Piperonyl methyl ether] | − | 
3 | CCOCc1ccc2c(c1)OCO2 [Synthesis Example 4, Piperonyl ethyl ether] | − | 
4 | CCCOCc1ccc2c(c1)OCO2 [Synthesis Example 5, Piperonyl n-propyl ether] | + | 
5 | CC(C)COCc1ccc2c(c1)OCO2 [Synthesis Example 6, Piperonyl isobutyl ether] | ++ | 
6 | CC(C)CCOCc1ccc2c(c1)OCO2 [Synthesis Example 7, Piperonyl isoamyl ether] | ++ | 
7 | CCCCCCOCc1ccc2c(c1)OCO2 [Synthesis Example 8, Piperonyl n-hexyl ether] | ++ | 
8 | CCCCCCCCOCc1ccc2c(c1)OCO2 [Synthesis Example 9, Piperonyl n-octyl ether] | + | whiteness of the cell precipitate rated visually (melanogenesis inhibition) (B16 melanoma cells [1]; Concentration 6.3 μg/ml): +
9 | O=c1cc(CO)occ1O [kojic acid] |  | Tyrosinase biosynthesis hindrance, Hindrance % ([2]; 50 ppm): 21.0%; Tyrosinase biosynthesis hindrance, Hindrance % ([2]; 100 ppm): 21.0%; Tyrosinase biosynthesis hindrance, Hindrance % ([2]; 200 ppm): 21.0%; Cell propagation rate % (B16 melanoma cells [3]; 50 ppm): 100.8%; Cell propagation rate % (B16 melanoma cells [3]; 100 ppm): 97.3%; Cell propagation rate % (B16 melanoma cells [3]; 200 ppm): 96.2%
